Measured values as given in ChEMBL document CHEMBL1201862, “PubChem BioAssay data set” (2004).
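Briefly, cells in 96-well plates were exposed to five compound concentrations for 48 h, and endpoints were estimated by linear interpolation. GI50 is the concentration that inhibits growth by half.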 Active and inactive are the calls of the source. No stated cut-off is given here; in the data, active = GI50 up to about 1.1 µM and inactive = higher.

What was measured:
Test in all cases: NCI-60 cell line screen, 48 h
HOP-62 = tested on: HOP-62
NCI-H226 = tested on: NCI-H226
SK-MEL-2 = tested on: SK-MEL-2
SK-MEL-28 = tested on: SK-MEL-28
SK-MEL-5 = tested on: SK-MEL-5
UO-31 = tested on: UO-31
OVCAR-8 = tested on: OVCAR-8
KM12 = tested on: KM12
U-251 = tested on: U-251
TK-10 = tested on: TK-10
ACHN = tested on: ACHN
M14 = tested on: M14
OVCAR-3 = tested on: OVCAR-3
OVCAR-5 = tested on: OVCAR-5
SR = tested on: SR
786-0 = tested on: 786-0
RPMI-8226 = tested on: RPMI-8226
HL-60 = tested on: HL-60
DU-145 = tested on: DU-145

Measured: GI50

O=C1c2cccc3cc([N+](=O)[O-])cc(c23)C(=O)N1NC1=NCCN1
inactive: HOP-62 > 100 µM | NCI-H226 > 100 µM | SK-MEL-2 > 100 µM | SK-MEL-28 > 100 µM | SK-MEL-5 > 100 µM | UO-31 > 100 µM | OVCAR-8 > 100 µM | KM12 > 100 µM | U-251 > 100 µM | TK-10 > 100 µM | ACHN > 100 µM | M14 > 100 µM | OVCAR-3 > 100 µM | OVCAR-5 > 100 µM | SR > 100 µM | 786-0 > 100 µM | RPMI-8226 > 100 µM | HL-60 > 100 µM

Cc1ccc(S(=O)(=O)NC(=O)Nc2cccc(S(N)(=O)=O)c2)cc1
inactive: HOP-62 > 100 µM | NCI-H226 > 100 µM | SK-MEL-2 > 100 µM | SK-MEL-28 > 100 µM | SK-MEL-5 > 100 µM | UO-31 > 100 µM | KM12 > 100 µM | U-251 > 100 µM | DU-145 > 100 µM | TK-10 > 100 µM | ACHN > 100 µM | M14 > 100 µM | OVCAR-3 > 100 µM | OVCAR-5 > 100 µM | SR > 100 µM | 786-0 > 100 µM | RPMI-8226 > 100 µM | HL-60 > 100 µM

O=[N+]([O-])c1ccccc1[S+]([O-])c1ccccc1 (configuration not stated)
inactive: HOP-62 > 100 µM | NCI-H226 49.9 µM | SK-MEL-2 > 100 µM | SK-MEL-28 > 100 µM | SK-MEL-5 36.8 µM | UO-31 63.5 µM | OVCAR-8 > 100 µM | KM12 87.9 µM | U-251 41.2 µM | TK-10 > 100 µM | ACHN 69.7 µM | M14 > 100 µM | OVCAR-3 73.8 µM | OVCAR-5 > 100 µM | SR 71.8 µM | 786-0 > 100 µM | RPMI-8226 52.5 µM | HL-60 27.7 µM

CN(C)c1ccc(Cc2cc(C(C)(C)C)cc(C(C)(C)C)c2O)cc1
inactive: HOP-62 20.9 µM | SK-MEL-2 6.87 µM | SK-MEL-28 20.3 µM | SK-MEL-5 15.6 µM | UO-31 17.2 µM | OVCAR-8 20 µM | KM12 12.2 µM | U-251 15.2 µM | TK-10 13.2 µM | ACHN 16.6 µM | M14 18.1 µM | OVCAR-5 6.27 µM | SR 14.6 µM | 786-0 18.5 µM | RPMI-8226 11.5 µM | HL-60 21 µM

c1ccc(CCN2CCc3[nH]c4ccccc4c3C2)cc1
inactive: HOP-62 19.5 µM | NCI-H226 29.8 µM | SK-MEL-28 20 µM | SK-MEL-5 16.5 µM | UO-31 13.6 µM | OVCAR-8 20.4 µM | KM12 17.3 µM | U-251 18 µM | DU-145 > 100 µM | TK-10 24.3 µM | ACHN 28.1 µM | M14 17.1 µM | OVCAR-5 20 µM | SR 27.9 µM | 786-0 17.1 µM | RPMI-8226 > 10 µM | HL-60 19 µM

Cc1ccc(C2=C(c3ccccc3)C(O)(c3ccccc3)C(c3ccccc3)=C2c2ccc(C)cc2)cc1
inactive: HOP-62 > 100 µM | NCI-H226 > 100 µM | SK-MEL-2 6.17 µM | SK-MEL-28 > 100 µM | SK-MEL-5 > 100 µM | UO-31 78.7 µM | OVCAR-8 > 100 µM | KM12 > 100 µM | U-251 31.5 µM | TK-10 77.4 µM | ACHN > 100 µM | M14 83.8 µM | OVCAR-5 > 100 µM | SR > 100 µM | 786-0 > 100 µM | RPMI-8226 35.7 µM

O=C1c2ccc3c4ccccc4n(-c4ccccc4)c3c2C(=O)N1c1ccc(Cl)cc1
inactive: HOP-62 > 100 µM | NCI-H226 > 100 µM | SK-MEL-2 > 100 µM | SK-MEL-5 > 100 µM | UO-31 > 100 µM | OVCAR-8 > 100 µM | KM12 > 100 µM | U-251 > 100 µM | TK-10 > 100 µM | ACHN > 100 µM | M14 > 100 µM | OVCAR-3 > 100 µM | OVCAR-5 > 100 µM | SR > 100 µM | 786-0 > 100 µM | HL-60 > 100 µM

N=C(CSSCC(=N)NCC12CC3CC(CC(C3)C1)C2)NCC12CC3CC(CC(C3)C1)C2
inactive: HOP-62 32.1 µM | NCI-H226 20.9 µM | SK-MEL-2 22.3 µM | SK-MEL-28 20.7 µM | SK-MEL-5 20.2 µM | UO-31 18.2 µM | OVCAR-8 18 µM | KM12 14.1 µM | U-251 14.3 µM | DU-145 16.9 µM | TK-10 18.8 µM | ACHN 13.3 µM | M14 18.2 µM | OVCAR-3 16.1 µM | OVCAR-5 17.7 µM | 786-0 29.9 µM | RPMI-8226 2.33 µM | HL-60 11 µM

CC(C)C(=O)Nc1nc2[nH]cnc2c(=O)[nH]1
inactive: HOP-62 > 100 µM | NCI-H226 > 100 µM | SK-MEL-2 > 100 µM | SK-MEL-28 > 100 µM | SK-MEL-5 > 100 µM | UO-31 > 100 µM | OVCAR-8 > 100 µM | KM12 > 100 µM | U-251 > 100 µM | TK-10 > 100 µM | ACHN > 100 µM | M14 > 100 µM | OVCAR-3 > 100 µM | OVCAR-5 > 100 µM | SR > 100 µM | 786-0 > 100 µM | RPMI-8226 > 100 µM | HL-60 > 100 µM

c1ccc(CCN2CCCCCC2)nc1
inactive: HOP-62 > 100 µM | NCI-H226 > 100 µM | SK-MEL-2 > 100 µM | SK-MEL-28 > 100 µM | SK-MEL-5 > 100 µM | UO-31 > 100 µM | OVCAR-8 > 100 µM | KM12 > 100 µM | U-251 > 100 µM | DU-145 > 100 µM | TK-10 > 100 µM | ACHN > 100 µM | M14 > 100 µM | OVCAR-3 > 100 µM | OVCAR-5 > 100 µM | 786-0 > 100 µM | RPMI-8226 > 100 µM

N=C(NC(=S)N1CCCCC1)N1CCCCC1
inactive: HOP-62 > 100 µM | NCI-H226 5.71 µM | SK-MEL-2 > 100 µM | SK-MEL-28 > 100 µM | SK-MEL-5 > 100 µM | UO-31 > 100 µM | OVCAR-8 > 100 µM | KM12 > 100 µM | U-251 > 100 µM | TK-10 > 100 µM | ACHN > 100 µM | M14 > 100 µM | OVCAR-5 > 100 µM | SR > 100 µM | 786-0 > 100 µM | RPMI-8226 > 100 µM | HL-60 > 100 µM

C(=C\c1ccc2ccccc2c1Nc1ccccc1)/c1ccccc1
inactive: HOP-62 20.1 µM | NCI-H226 33.2 µM | SK-MEL-2 > 60.5 µM | SK-MEL-28 46 µM | SK-MEL-5 78.3 µM | UO-31 29.8 µM | OVCAR-8 22 µM | KM12 51.3 µM | U-251 25.9 µM | TK-10 44.5 µM | ACHN 20.6 µM | M14 18.7 µM | OVCAR-3 22.4 µM | OVCAR-5 > 100 µM | SR 15.2 µM | 786-0 17 µM | RPMI-8226 25.1 µM | HL-60 > 100 µM
